Results taken from patent publication US10568328B2, “Methods and compositions for weed control” (Monsanto Technology LLC, priority 2013, dated 2020).

B1: T25454: A. palmeri OEP80 trigger dsRNA polynucleotide, SEQ ID NO: 1544 (nucleic acid, listed as Amaranthus palmeri)
chain: GATACTAGGGATGGTATTAGATTGGTCTTTCAGGTAGAACCAAACCAGGAGTTTAGAGGACTGGTGTGC
modifications: double-stranded RNA trigger, chemistry not given here, further chemistry not given here
B2: T25472: A. palmeri OEP80 trigger dsRNA polynucleotide, SEQ ID NO: 1562 (nucleic acid, listed as Amaranthus palmeri)
chain: GTCATAAAAGATTTCTACAACAGCGCTCTTACGGCAAGTGGGAATACTCATGATAATATGC
modifications: double-stranded RNA trigger, chemistry not given here, further chemistry not given here

Tested on: Amaranthus palmeri plants (R22 glyphosate resistant biotype)
Experiment: OEP80 trigger dsRNA polynucleotides followed by 2X WMAX, injury rating (FIG. 1)
Type: in vivo
Settings: 8 nmol/plant, 0.5-1.0 percent Silwet L-77 and buffer, 2X WMAX one day later; rated 14 days after WMAX; baseline 40 percent
Protocol: FIG. 1. Treatment of Amaranthus palmeri with dsRNA trigger polynucleotides targeting OEP80.
The following procedure is used for all assays described in this example. Approximately four-week old Amaranthus palmeri plants (glyphosate-resistant Palmer amaranth, “R-22”) are used in this assay. Plants are treated with 0.5-1.0 percent Silwet L-77 solution freshly made with ddH2O. Two fully expanded leaves per plant (one cotyledon, one true leaf) are treated with the polynucleotide/Silwet L-77 solution. Final concentration for each dsRNA polynucleotide was 25 microM) unless otherwise stated. Twenty microliters of the solution are applied to the top surface of each of the two pre-treated leaves to provide a total of 40 microliters (1-4 nmol polynucleotide) for each plant.
Spray solutions are prepared the same day as spraying. Single oligonucleotide molecules are applied at rates between 0.04 and 0.18 mg/ml in 20 mM potassium phosphate buffer (pH 6.8) are added to spray solutions 15 to 50 minutes before spraying. One-to-two-ml spray solutions were applied using a custom low-dead-volume sprayer (“milli applicator”) at 8-30 gpa (gallons per acre) to one-to-four inch tall plants. Treated plants are place in a greenhouse set for either a 26.7/21.1° C. or 29.4/21.1° C. 14/10 hour temperature and supplemental light schedule. The amount of response relative to unsprayed treatments is collected at various time intervals up to 21 days after treatment.
A common spray nozzle used for all applications made with the track sprayer is the Turbo Teejet air induction nozzle (015) nozzle with air pressure set at a minimum of 20 psi (pounds per square inch or […]). This style nozzle is currently being utilized to lessen shear forces that can damage or otherwise change large macromolecules that can seen with other nozzle styles. The height of the spray nozzle is to be 16-18 inches above top of plant material. Treatments are to be made when plants reach the desired size, height or leaf stage.
Application rates are chosen so as to achieve percent control ratings in the range of 50 percent at the lowest rate to 90 percent control at the highest rate. The rates in this control range provide the best possible efficacy comparisons among formulations, allowing separation of relative performance of test samples. The rate of herbicide used in these studies is typically at the manufacturer's recommended use rate. On occasion lower or higher rates may be necessary depending on test objectives. The rate structure used for a given test will be dependent on the environmental conditions at the time of spray application (time of year), the plant species being treated (highly susceptible or tough to kill) and age (or size) of plants to be treated.
Amaranthus palmeri plants (R22 glyphosate resistant biotype) were treated following the protocol described in Example 3. Trigger dsRNA polynucleotides shown in Table 5 (SEQ ID NO: 1535-1573, plus strand sequence illustrated) are targeting the A. palmeri OEP80 gene coding region (SEQ ID NO: 365). The polynucleotides were topically applied at 8 nmol/plant in a composition comprising 0.5-1.0 percent Silwet L-77 and buffer followed one day later by treatment with 2× WeatherMAX (WMAX). Injury rating of the treated plants was conducted 14 days after the WMAX treatment. The control treatments were buffer alone and 2 rates (4 nmol and 8 nmol) of a trigger polynucleotide (oligo 5.3) targeting the A. palmeri EPSPS coding gene sequence. The average baseline level of injury effect of buffer plus WMAX was set at 40 percent for this experiment. […] Additionally, 4 regions of the target gene sequence were identified in which the polynucleotides in those regions were particularly effective, these regions are between nucleotide positions 369-701, 1016-1168, 1364-1622 and 1683-1792 of SEQ ID NO: 365.

| Molecule | Injury rating: enhancement of the effect of WMAX (FIG. 1) |
| --- | --- |
| T25452: A. palmeri OEP80 trigger dsRNA polynucleotide, SEQ ID NO: 1542 (GGAGGCATTAATGGCATTGAAAGCTTGCCGGGCGAATTCAGCTTTGACTGTGC; double-stranded RNA trigger, chemistry not given here, further chemistry not given here; listed as Amaranthus palmeri) [Oligo T25452] | able to enhance the effect of WMAX |
| T25455: A. palmeri OEP80 trigger dsRNA polynucleotide, SEQ ID NO: 1545 (GCGAAGGAGCTAATGTTCTCCCTTCCAAGTTTGTAGAGGATTCATTTC; double-stranded RNA trigger, chemistry not given here, further chemistry not given here; listed as Amaranthus palmeri) [Oligo T25455] | able to enhance the effect of WMAX |
| T25456: A. palmeri OEP80 trigger dsRNA polynucleotide, SEQ ID NO: 1546 (GTGATGGATATGGGAAAGTGGTCAATATCAGGCGTTTGGATGAAGTGATTGATTC; double-stranded RNA trigger, chemistry not given here, further chemistry not given here; listed as Amaranthus palmeri) [Oligo T25456] | able to enhance the effect of WMAX |
| T25457: A. palmeri OEP80 trigger dsRNA polynucleotide, SEQ ID NO: 1547 (GATTCTATAAATGGATGGTACATGGAGCGTGGTCTTTTTGGCATGGTTTC; double-stranded RNA trigger, chemistry not given here, further chemistry not given here; listed as Amaranthus palmeri) [Oligo T25457] | able to enhance the effect of WMAX |
| T25464: A. palmeri OEP80 trigger dsRNA polynucleotide, SEQ ID NO: 1554 (GTTTCTCGGCTGGTGGTGGTATTTCGAGCGGGATAACGAGCGGACCGC; double-stranded RNA trigger, chemistry not given here, further chemistry not given here; listed as Amaranthus palmeri) [Oligo T25464] | able to enhance the effect of WMAX |
| T25465: A. palmeri OEP80 trigger dsRNA polynucleotide, SEQ ID NO: 1555 (GCTATCAGGTTTAATTGGAAGCTTTGCATATTCTCACAGGAATCTGTTTGGAAAAAATC; double-stranded RNA trigger, chemistry not given here, further chemistry not given here; listed as Amaranthus palmeri) [Oligo T25465] | able to enhance the effect of WMAX |
| T25466: A. palmeri OEP80 trigger dsRNA polynucleotide, SEQ ID NO: 1556 (GAAAAAATCAAAAAGTAAATGTCTCTCTTGAAAGAGGCCAAATCGACTCTATCTTCC; double-stranded RNA trigger, chemistry not given here, further chemistry not given here; listed as Amaranthus palmeri) [Oligo T25466] | able to enhance the effect of WMAX |
| T25471: A. palmeri OEP80 trigger dsRNA polynucleotide, SEQ ID NO: 1561 (GACTTACGTTTCAGCATGCTGGTGTCCGTGATGAAAAAGGGAACCCCGTC; double-stranded RNA trigger, chemistry not given here, further chemistry not given here; listed as Amaranthus palmeri) [Oligo T25471] | able to enhance the effect of WMAX |
| T25473: A. palmeri OEP80 trigger dsRNA polynucleotide, SEQ ID NO: 1563 (GCTGCTTGCCAAAGGCGAGTGTGCCTACACGGGTGACTTAGGATCCTCAATGTTAGTC; double-stranded RNA trigger, chemistry not given here, further chemistry not given here; listed as Amaranthus palmeri) [Oligo T25473] | able to enhance the effect of WMAX |
| T25474: A. palmeri OEP80 trigger dsRNA polynucleotide, SEQ ID NO: 1564 (GTCTTAAGCATGGAACAAGGTCTTCCTATCTATCCTGAGTGGCTGTGTTTTAATC; double-stranded RNA trigger, chemistry not given here, further chemistry not given here; listed as Amaranthus palmeri) [Oligo T25474] | able to enhance the effect of WMAX |
| T25475: A. palmeri OEP80 trigger dsRNA polynucleotide, SEQ ID NO: 1565 (GTTTTAATCGAGTCAACGCTCGTGCTAGGTCAGGGGTGGACATTGGTCCAGC; double-stranded RNA trigger, chemistry not given here, further chemistry not given here; listed as Amaranthus palmeri) [Oligo T25475] | able to enhance the effect of WMAX |
| T25477: A. palmeri OEP80 trigger dsRNA polynucleotide, SEQ ID NO: 1567 (GTTTGCGATCGGTGGTACAAATAGTGTGAGAGGATATGAAGAAGGTGCCGTTGGC; double-stranded RNA trigger, chemistry not given here, further chemistry not given here; listed as Amaranthus palmeri) [Oligo T25477] | able to enhance the effect of WMAX |
| T25478: A. palmeri OEP80 trigger dsRNA polynucleotide, SEQ ID NO: 1568 (GCTCAGGCCTTTCATACGTAGTGGGCTGTGGAGAAGTTTCCTTCCCTCTGTATGGTC; double-stranded RNA trigger, chemistry not given here, further chemistry not given here; listed as Amaranthus palmeri) [Oligo T25478] | able to enhance the effect of WMAX |
| T29213: A. palmeri OEP80 trigger dsRNA polynucleotide, SEQ ID NO: 1573 (GGATATGAAGAAGGTGCCGTTGGC; double-stranded RNA trigger, chemistry not given here, further chemistry not given here; listed as Amaranthus palmeri) [Oligo T29213] | able to enhance the effect of WMAX |
| B1 | able to enhance the effect of WMAX |
| B2 | able to enhance the effect of WMAX |
